These molecules were tested on TE-441-T (assay: cells). Settings: Homo sapiens, TE-441-T.
Assay type: functional, cell-based, Homo sapiens
Description: SANGER: Inhibition of human TE-441-T cell growth in a cell viability assay.

Structure (SMILES)	IC50
O=C(O)c1ccc(-c2c[nH]c3ncc(-c4ccccc4)cc23)cc1C1CCCC1 [GSK-650394]	> 16 µM

These molecules were tested on NCI-H2087 (assay: cells). Settings: Homo sapiens, NCI-H2087.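 Also: growth inhibition determined with a cell viability readout.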
Assay type: functional, cell-based, Homo sapiens
Description: SANGER: Inhibition of human NCI-H2087 cell growth in a cell viability assay.

Structure (SMILES)	IC50
O=C(O)c1ccc(-c2c[nH]c3ncc(-c4ccccc4)cc23)cc1C1CCCC1 [GSK-650394]	13.4 µM

What follows are molecules tested on MDA-MB-453 (assay: cells). Settings: Homo sapiens, MDA-MB-453.
Assay type: functional, cell-based, Homo sapiens
Description: SANGER: Inhibition of human MDA-MB-453 cell growth in a cell viability assay.

Structure (SMILES)	IC50
O=C(O)c1ccc(-c2c[nH]c3ncc(-c4ccccc4)cc23)cc1C1CCCC1 [GSK-650394]	> 16 µM

Each molecule was assayed on LOX IMVI (assay: cells). Settings: Homo sapiens, LOX IMVI.
Assay type: functional, cell-based, Homo sapiens
Description: SANGER: Inhibition of human LOXIMVI cell growth in a cell viability assay.

Structure (SMILES)	IC50
O=C(O)c1ccc(-c2c[nH]c3ncc(-c4ccccc4)cc23)cc1C1CCCC1 [GSK-650394]	> 16 µM

These molecules were tested on PC-14 (assay: cells). Settings: Homo sapiens, PC-14.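 Also: cell viability assay measuring inhibition of PC-14 cell growth.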
Assay type: functional, cell-based, Homo sapiens
Description: SANGER: Inhibition of human PC-14 cell growth in a cell viability assay.

Structure (SMILES)	IC50
O=C(O)c1ccc(-c2c[nH]c3ncc(-c4ccccc4)cc23)cc1C1CCCC1 [GSK-650394]	> 16 µM

Each molecule was assayed on SKG-IIIa (assay: cells). Settings: Homo sapiens, SKG-IIIa.
Assay type: functional, cell-based, Homo sapiens
Description: SANGER: Inhibition of human SKG-IIIa cell growth in a cell viability assay.

Structure (SMILES)	IC50
O=C(O)c1ccc(-c2c[nH]c3ncc(-c4ccccc4)cc23)cc1C1CCCC1 [GSK-650394]	> 16 µM

The molecules below were run on NCI-H2347 (assay: cells). Settings: Homo sapiens, NCI-H2347.
Assay type: functional, cell-based, Homo sapiens
Description: SANGER: Inhibition of human NCI-H2347 cell growth in a cell viability assay.

Structure (SMILES)	IC50
O=C(O)c1ccc(-c2c[nH]c3ncc(-c4ccccc4)cc23)cc1C1CCCC1 [GSK-650394]	> 16 µM

These molecules were tested on OCI-AML2 (assay: cells). Settings: Homo sapiens, OCI-AML2.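 Also: growth inhibition of OCI-AML2 cells, read out with a cell viability assay.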
Assay type: functional, cell-based, Homo sapiens
Description: SANGER: Inhibition of human OCI-AML2 cell growth in a cell viability assay.

Structure (SMILES)	IC50
O=C(O)c1ccc(-c2c[nH]c3ncc(-c4ccccc4)cc23)cc1C1CCCC1 [GSK-650394]	> 16 µM

These molecules were tested on A 172 (assay: cells). Settings: Homo sapiens, A 172.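 Also: growth inhibition of A172 cells, measured with a cell viability readout.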
Assay type: functional, cell-based, Homo sapiens
Description: SANGER: Inhibition of human A172 cell growth in a cell viability assay.

Structure (SMILES)	IC50
O=C(O)c1ccc(-c2c[nH]c3ncc(-c4ccccc4)cc23)cc1C1CCCC1 [GSK-650394]	> 16 µM

The molecules below were run on Huh-7 (assay: cells). Settings: Homo sapiens, Huh-7.
Assay type: functional, cell-based, Homo sapiens
Description: SANGER: Inhibition of human HuH-7 cell growth in a cell viability assay.

Structure (SMILES)	IC50
O=C(O)c1ccc(-c2c[nH]c3ncc(-c4ccccc4)cc23)cc1C1CCCC1 [GSK-650394]	> 16 µM

These molecules were tested on MC-CAR (assay: cells). Settings: Homo sapiens, MC-CAR.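 Also: growth inhibition of the human MC-CAR cell line, read out by a cell viability assay.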
Assay type: functional, cell-based, Homo sapiens
Description: SANGER: Inhibition of human MC-CAR cell growth in a cell viability assay.

Structure (SMILES)	IC50
O=C(O)c1ccc(-c2c[nH]c3ncc(-c4ccccc4)cc23)cc1C1CCCC1 [GSK-650394]	> 16 µM

Each molecule was assayed on HOP-62 (assay: cells). Settings: Homo sapiens, HOP-62.
Assay type: functional, cell-based, Homo sapiens
Description: SANGER: Inhibition of human HOP-62 cell growth in a cell viability assay.

Structure (SMILES)	IC50
O=C(O)c1ccc(-c2c[nH]c3ncc(-c4ccccc4)cc23)cc1C1CCCC1 [GSK-650394]	> 16 µM

What follows are molecules tested on G-401 (assay: cells). Settings: Homo sapiens, G-401.
Assay type: functional, cell-based, Homo sapiens
Description: SANGER: Inhibition of human G-401 cell growth in a cell viability assay.

Structure (SMILES)	IC50
O=C(O)c1ccc(-c2c[nH]c3ncc(-c4ccccc4)cc23)cc1C1CCCC1 [GSK-650394]	> 16 µM

Each molecule was assayed on CTB-1 (assay: cells). Settings: Homo sapiens, CTB-1.
Assay type: functional, cell-based, Homo sapiens
Description: SANGER: Inhibition of human CTB-1 cell growth in a cell viability assay.

Structure (SMILES)	IC50
O=C(O)c1ccc(-c2c[nH]c3ncc(-c4ccccc4)cc23)cc1C1CCCC1 [GSK-650394]	> 16 µM

Each molecule was assayed on HCC1395 (assay: cells). Settings: Homo sapiens, HCC1395.
Assay type: functional, cell-based, Homo sapiens
Description: SANGER: Inhibition of human HCC1395 cell growth in a cell viability assay.

Structure (SMILES)	IC50
O=C(O)c1ccc(-c2c[nH]c3ncc(-c4ccccc4)cc23)cc1C1CCCC1 [GSK-650394]	> 16 µM

These molecules were tested on CAPAN-1 (assay: cells). Settings: Homo sapiens, CAPAN-1.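 Also: growth suppression of CAPAN-1 cells, read out by a cell viability assay.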
Assay type: functional, cell-based, Homo sapiens
Description: SANGER: Inhibition of human CAPAN-1 cell growth in a cell viability assay.

Structure (SMILES)	IC50
O=C(O)c1ccc(-c2c[nH]c3ncc(-c4ccccc4)cc23)cc1C1CCCC1 [GSK-650394]	> 16 µM

Each molecule was assayed on UMUC3 (assay: cells). Settings: Homo sapiens, UMUC3.
Assay type: functional, cell-based, Homo sapiens
Description: SANGER: Inhibition of human UM-UC-3 cell growth in a cell viability assay.

Structure (SMILES)	IC50
O=C(O)c1ccc(-c2c[nH]c3ncc(-c4ccccc4)cc23)cc1C1CCCC1 [GSK-650394]	9.58 µM

What follows are molecules tested on T98G (assay: cells). Settings: Homo sapiens, T98G.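 Also: growth inhibition of T98G cells, read out by a cell viability assay.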
Assay type: functional, cell-based, Homo sapiens
Description: SANGER: Inhibition of human T98G cell growth in a cell viability assay.

Structure (SMILES)	IC50
O=C(O)c1ccc(-c2c[nH]c3ncc(-c4ccccc4)cc23)cc1C1CCCC1 [GSK-650394]	> 16 µM

Each molecule was assayed on NB13 (assay: cells). Settings: Homo sapiens, NB13.
Assay type: functional, cell-based, Homo sapiens
Description: SANGER: Inhibition of human NB13 cell growth in a cell viability assay.

Structure (SMILES)	IC50
O=C(O)c1ccc(-c2c[nH]c3ncc(-c4ccccc4)cc23)cc1C1CCCC1 [GSK-650394]	> 16 µM

Each molecule was assayed on SBC-1 (assay: cells). Settings: Homo sapiens, SBC-1.
Assay type: functional, cell-based, Homo sapiens
Description: SANGER: Inhibition of human SBC-1 cell growth in a cell viability assay.

Structure (SMILES)	IC50
O=C(O)c1ccc(-c2c[nH]c3ncc(-c4ccccc4)cc23)cc1C1CCCC1 [GSK-650394]	> 16 µM

What follows are molecules tested on CAL-33 (assay: cells). Settings: Homo sapiens, CAL-33.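 Also: growth inhibition of CAL-33 cells, read out with a cell viability assay.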
Assay type: functional, cell-based, Homo sapiens
Description: SANGER: Inhibition of human CAL-33 cell growth in a cell viability assay.

Structure (SMILES)	IC50
O=C(O)c1ccc(-c2c[nH]c3ncc(-c4ccccc4)cc23)cc1C1CCCC1 [GSK-650394]	9.96 µM

What follows are molecules tested on ST486 (assay: SANGER: Inhibition of human ST486 cell growth in a cell viability assay.). Settings: Homo sapiens, ST486.
Assay type: functional, cell-based

Structure (SMILES)	IC50
O=C(O)c1ccc(-c2c[nH]c3ncc(-c4ccccc4)cc23)cc1C1CCCC1 [GSK-650394]	> 16 µM

These molecules were tested on GI-ME-N (assay: cells). Settings: Homo sapiens, GI-ME-N.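 Also: growth inhibition of human GI-ME-N cells, read out with a cell viability assay.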
Assay type: functional, cell-based, Homo sapiens
Description: SANGER: Inhibition of human GI-ME-N cell growth in a cell viability assay.

Structure (SMILES)	IC50
O=C(O)c1ccc(-c2c[nH]c3ncc(-c4ccccc4)cc23)cc1C1CCCC1 [GSK-650394]	> 16 µM

The molecules below were run on MZ2-MEL (assay: cells). Settings: Homo sapiens, MZ2-MEL.
Assay type: functional, cell-based, Homo sapiens
Description: SANGER: Inhibition of human MZ2-MEL cell growth in a cell viability assay.

Structure (SMILES)	IC50
O=C(O)c1ccc(-c2c[nH]c3ncc(-c4ccccc4)cc23)cc1C1CCCC1 [GSK-650394]	6.61 µM

These molecules were tested on BXPC-3 (assay: cells). Settings: Homo sapiens, BXPC-3.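 Also: growth inhibition of human BxPC-3 cells, read out by a cell viability assay.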
Assay type: functional, cell-based, Homo sapiens
Description: SANGER: Inhibition of human BxPC-3 cell growth in a cell viability assay.

Structure (SMILES)	IC50
O=C(O)c1ccc(-c2c[nH]c3ncc(-c4ccccc4)cc23)cc1C1CCCC1 [GSK-650394]	> 16 µM

These molecules were tested on LN-405 (assay: cells). Settings: Homo sapiens, LN-405.
Assay type: functional, cell-based, Homo sapiens
Description: SANGER: Inhibition of human LN-405 cell growth in a cell viability assay.

Structure (SMILES)	IC50
O=C(O)c1ccc(-c2c[nH]c3ncc(-c4ccccc4)cc23)cc1C1CCCC1 [GSK-650394]	> 16 µM

Each molecule was assayed on 8505C (assay: cells). Settings: Homo sapiens, 8505C.
Assay type: functional, cell-based, Homo sapiens
Description: SANGER: Inhibition of human 8505C cell growth in a cell viability assay.

Structure (SMILES)	IC50
O=C(O)c1ccc(-c2c[nH]c3ncc(-c4ccccc4)cc23)cc1C1CCCC1 [GSK-650394]	7.78 µM

The molecules below were run on GAK (assay: cells). Settings: Homo sapiens, GAK.
Assay type: functional, cell-based, Homo sapiens
Description: SANGER: Inhibition of human GAK cell growth in a cell viability assay.

Structure (SMILES)	IC50
O=C(O)c1ccc(-c2c[nH]c3ncc(-c4ccccc4)cc23)cc1C1CCCC1 [GSK-650394]	> 16 µM

Each molecule was assayed on TE-1 (assay: cells). Settings: Homo sapiens, TE-1.
Assay type: functional, cell-based, Homo sapiens
Description: SANGER: Inhibition of human TE-1 cell growth in a cell viability assay.

Structure (SMILES)	IC50
O=C(O)c1ccc(-c2c[nH]c3ncc(-c4ccccc4)cc23)cc1C1CCCC1 [GSK-650394]	> 16 µM

These molecules were tested on Lu-65 (assay: cells). Settings: Homo sapiens, Lu-65.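 Also: growth inhibition of Lu-65 cancer cells, read out by a cell viability assay.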
Assay type: functional, cell-based, Homo sapiens
Description: SANGER: Inhibition of human LU-65 cell growth in a cell viability assay.

Structure (SMILES)	IC50
O=C(O)c1ccc(-c2c[nH]c3ncc(-c4ccccc4)cc23)cc1C1CCCC1 [GSK-650394]	> 16 µM

These molecules were tested on U-698-M (assay: cells). Settings: Homo sapiens, U-698-M.
Assay type: functional, cell-based, Homo sapiens
Description: SANGER: Inhibition of human U-698-M cell growth in a cell viability assay.

Structure (SMILES)	IC50
O=C(O)c1ccc(-c2c[nH]c3ncc(-c4ccccc4)cc23)cc1C1CCCC1 [GSK-650394]	> 16 µM

What follows are molecules tested on D-392MG (assay: cells). Settings: Homo sapiens, D-392MG.
Assay type: functional, cell-based, Homo sapiens

Structure (SMILES)	IC50
O=C(O)c1ccc(-c2c[nH]c3ncc(-c4ccccc4)cc23)cc1C1CCCC1 [GSK-650394]	> 16 µM

What follows are molecules tested on RPMI-2650 (assay: cells). Settings: Homo sapiens, RPMI-2650.
Assay type: functional, cell-based, Homo sapiens
Description: SANGER: Inhibition of human RPMI-2650 cell growth in a cell viability assay.

Structure (SMILES)	IC50
O=C(O)c1ccc(-c2c[nH]c3ncc(-c4ccccc4)cc23)cc1C1CCCC1 [GSK-650394]	> 16 µM

The molecules below were run on NCI-H1304 (assay: cells). Settings: Homo sapiens, NCI-H1304.
Assay type: functional, cell-based, Homo sapiens
Description: SANGER: Inhibition of human NCI-H1304 cell growth in a cell viability assay.

Structure (SMILES)	IC50
O=C(O)c1ccc(-c2c[nH]c3ncc(-c4ccccc4)cc23)cc1C1CCCC1 [GSK-650394]	> 16 µM

What follows are molecules tested on ASPC1 (assay: cells). Settings: Homo sapiens, ASPC1.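 Also: growth inhibition of AsPC-1 cells, read out with a cell viability assay.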
Assay type: functional, cell-based, Homo sapiens
Description: SANGER: Inhibition of human AsPC-1 cell growth in a cell viability assay.

Structure (SMILES)	IC50
O=C(O)c1ccc(-c2c[nH]c3ncc(-c4ccccc4)cc23)cc1C1CCCC1 [GSK-650394]	> 16 µM

The molecules below were run on MKN-45 (assay: cells). Settings: Homo sapiens, MKN-45.
Assay type: functional, cell-based, Homo sapiens
Description: SANGER: Inhibition of human MKN45 cell growth in a cell viability assay.

Structure (SMILES)	IC50
O=C(O)c1ccc(-c2c[nH]c3ncc(-c4ccccc4)cc23)cc1C1CCCC1 [GSK-650394]	> 16 µM

Each molecule was assayed on NCI-H1581 (assay: cells). Settings: Homo sapiens, NCI-H1581.
Assay type: functional, cell-based, Homo sapiens
Description: SANGER: Inhibition of human NCI-H1581 cell growth in a cell viability assay.

Structure (SMILES)	IC50
O=C(O)c1ccc(-c2c[nH]c3ncc(-c4ccccc4)cc23)cc1C1CCCC1 [GSK-650394]	> 16 µM

Each molecule was assayed on FTC-133 (assay: cells). Settings: Homo sapiens, FTC-133.
Assay type: functional, cell-based, Homo sapiens

Structure (SMILES)	IC50
O=C(O)c1ccc(-c2c[nH]c3ncc(-c4ccccc4)cc23)cc1C1CCCC1 [GSK-650394]	> 16 µM

The molecules below were run on RPMI 8402 (assay: SANGER: Inhibition of human RPMI-8402 cell growth in a cell viability assay.). Settings: Homo sapiens, RPMI 8402; read-out: IC50.
Assay type: functional, cell-based

Structure (SMILES)	IC50
O=C(O)c1ccc(-c2c[nH]c3ncc(-c4ccccc4)cc23)cc1C1CCCC1 [GSK-650394]	> 16 µM

Each molecule was assayed on NCI-H1437 (assay: cells). Settings: Homo sapiens, NCI-H1437.
Assay type: functional, cell-based, Homo sapiens
Description: SANGER: Inhibition of human NCI-H1437 cell growth in a cell viability assay.

Structure (SMILES)	IC50
O=C(O)c1ccc(-c2c[nH]c3ncc(-c4ccccc4)cc23)cc1C1CCCC1 [GSK-650394]	6.13 µM

Each molecule was assayed on NCI-H358 (assay: cells). Settings: Homo sapiens, NCI-H358.
Assay type: functional, cell-based, Homo sapiens
Description: SANGER: Inhibition of human NCI-H358 cell growth in a cell viability assay.

Structure (SMILES)	IC50
O=C(O)c1ccc(-c2c[nH]c3ncc(-c4ccccc4)cc23)cc1C1CCCC1 [GSK-650394]	6.25 µM

What follows are molecules tested on NCI-H716 (assay: cells). Settings: Homo sapiens, NCI-H716.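 Also: growth inhibition of human NCI-H716 cells, measured by a cell viability assay.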
Assay type: functional, cell-based, Homo sapiens
Description: SANGER: Inhibition of human NCI-H716 cell growth in a cell viability assay.

Structure (SMILES)	IC50
O=C(O)c1ccc(-c2c[nH]c3ncc(-c4ccccc4)cc23)cc1C1CCCC1 [GSK-650394]	> 16 µM

Each molecule was assayed on KARPAS-299 (assay: cells). Settings: Homo sapiens, KARPAS-299.
Assay type: functional, cell-based, Homo sapiens
Description: SANGER: Inhibition of human KARPAS-299 cell growth in a cell viability assay.

Structure (SMILES)	IC50
O=C(O)c1ccc(-c2c[nH]c3ncc(-c4ccccc4)cc23)cc1C1CCCC1 [GSK-650394]	> 16 µM

Each molecule was assayed on BC-3 (assay: cells). Settings: Homo sapiens, BC-3.
Assay type: functional, cell-based, Homo sapiens
Description: SANGER: Inhibition of human BC-3 cell growth in a cell viability assay.

Structure (SMILES)	IC50
O=C(O)c1ccc(-c2c[nH]c3ncc(-c4ccccc4)cc23)cc1C1CCCC1 [GSK-650394]	1870 nM

What follows are molecules tested on KU812 cell line (assay: cells). Settings: Homo sapiens, KU812.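 Also: growth inhibition of KU812 cells, read out with a cell viability assay.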
Assay type: functional, cell-based, Homo sapiens
Description: SANGER: Inhibition of human KU812 cell growth in a cell viability assay.

Structure (SMILES)	IC50
O=C(O)c1ccc(-c2c[nH]c3ncc(-c4ccccc4)cc23)cc1C1CCCC1 [GSK-650394]	2190 nM

The molecules below were run on KY821 (assay: cells). Settings: Homo sapiens, KY821.
Assay type: functional, cell-based, Homo sapiens
Description: SANGER: Inhibition of human KY821 cell growth in a cell viability assay.

Structure (SMILES)	IC50
O=C(O)c1ccc(-c2c[nH]c3ncc(-c4ccccc4)cc23)cc1C1CCCC1 [GSK-650394]	> 16 µM

Each molecule was assayed on HO-1-N-1 (assay: cells). Settings: Homo sapiens, HO-1-N-1.
Assay type: functional, cell-based, Homo sapiens
Description: SANGER: Inhibition of human HO-1-N-1 cell growth in a cell viability assay.

Structure (SMILES)	IC50
O=C(O)c1ccc(-c2c[nH]c3ncc(-c4ccccc4)cc23)cc1C1CCCC1 [GSK-650394]	> 16 µM

— ChEMBL document CHEMBL1201861, “Genomics of Drug Sensitity in Cancer screening data, Wellcome Trust Sanger Institute”
